Where two headings read alike, the source gives them in different places.
How the values were obtained:
[1] = Dissolution of matrix compounds when preparing test solutions (Example 4a); type: physicochemical
Experimental: Conventional MALDI matrix compounds 2,5-dihydroxybenzoic acid (2,5-DHB); 1,5-diaminonaphthalene (1,5-DAN); 3-hydroxycoumarin (3-HC); […] (2,5-DHAP); 2-mercaptobenzothiazole (2-MBT) and dithranol, respectively, were dissolved in acetonitrile/water (1:1 v/v) at a concentration of 5 mg/mL. […] 1 μL of each resulting solution was pipetted onto an ITO glass slide. After droplets had dried in the air, a first optical image (Aperio CS2 Scanner, Leica Biosystems, Wetzlar, Germany) of the whole ITO slides at 0 min. was recorded. The slides were then incubated at about 35° C. and a vacuum between about 3.5×10^−6 mbar (t=0 min.) and about 1.4×10^−7 mbar (t=892 min.) in an ultrafleXtreme™ MALDI TOF mass spectrometer (Bruker Daltonics) equipped with a Smartbeam-II Nd:YAG laser (355 nm) for time periods of 18 min., 80 min. and 892 min., respectively. After each time interval, additional optical images were taken of the slides. For 2,5-dihydroxyacetophenone (2,5-DHAP) a similar test was performed with a diluted solution (2.5 mg/mL). […]

[2] = Additional vacuum stability test, compounds sprayed on ITO slides with porcine brain tissue sections (Example 4a); type: physicochemical; conditions: 21 hrs, about 35° C., vacuum up to about 1.4×10^−7 mbar
Experimental: In a separate experiment, frozen porcine brain tissue was sectioned into 10 μm slices using a Leica CM1950 clinical cryostate (Leica Biosystems, Germany) at a chamber temperature of −15° C. and a head temperature of −10° C. The tissue sections were thaw-mounted onto ITO glass slides and dried for 20 min under vacuum. The ITO glass object slides with tissue sections were then sealed and stored at −80° C. until analysis. Shortly before usage, the slides were taken out from the freezer and thawed at room temperature for 20 min. under vacuum.
Photo-caged MALDI Matrix Compounds of Examples Ex. 1.1 (DMNB-2,5-DHAP), 1.7 (CNB-2,5-DHAP), 1.8 (PMNB-2,5-DHAP) and 1.9 (DMNBC-2,5 DHAP) were dissolved (Ex. 1.1: 2.5 mg/mL in standard solvent according to table 2 above; Ex.: 1.7 and 1.8:2.5 mg/mL in acetonitrile/water 7:3 (v/v)+0.1% trifluoroacetic acid; Ex. 1.9: saturated solution <2.5 mg/mL in acetonitrile/water 8:2 (v/v)+0.1% trifluoroacetic acid) and sprayed onto the ITO slides as prepared above, including to the porcine brain tissue sections thereof (see above) with a HTX M5 sprayer (HTX Technologies, USA), spray parameters: temperature of spray nozzle/tray: 50° C./25° C., Spray nozzle velocity 1000 mm/min; nozzle height: 40 mm. Twenty passes with a flow rate of 60 μL/min and a pressure of 10 psi were sprayed. Optical images of the sprayed slides were then recorded before incubation and after incubation in an ultrafleXtreme™ MALDI TOF mass spectrometer (see above) for 21 hrs at about 35° C. and a vacuum of up to about 1.4×10^−7 mbar.

[3] = stated as known; cited from earlier work
[4] = Solubility tests with Photo-caged MALDI Matrix Compounds in solvents/solvent systems; type: physicochemical; conditions: for solubility: thermodynamic from solid, read-out: solubility (completely dissolved at 2.5 mg/mL); for solubility in the solvents or solvent systems under review: overall rating from Table 2, Solvents 1-10
Experimental: Photo-caged MALDI Matrix Compounds according to the invention were prepared as described in Example 1 above and tested for solubility in different solvents (including solvent systems). The solvents (including solvent systems) used in this Example 2 are listed here below in Table 1:
Around 1 mg of each Photo-caged MALDI Matrix Compound was weighed into an Eppendorf tube using an analytical balance. The calculated amount of selected solvent was added into the tube to generate a solution at a maximal concentration of 2.5 mg/mL. An ultrasonic bath was used for max. 3 min. to accelerate the dissolving process.
The numbers of the compounds used in this Example 2 refer to the example numbers of Example 1 above. In Table 2 below, the mark “X” in a cell means, that the respective compound was completely dissolved in the respective solvent or solvent system in a concentration of 2.5 mg/mL.

[5] = Crystallisation test by spray method; type: physicochemical; conditions: on ITO object slide, by scanning electron microscopy
Experimental: The Photo-caged MALDI Matrix Compound of Ex. 1.1 according to the invention was prepared as described in Example 1 above and spray-tested for its crystallization properties in a spraying method on (i) an indium tin-oxide (ITO) object slide and (ii) on a sliced sample of porcine brain.
In each case, a solution of the Photo-caged MALDI Matrix Compound of Ex. 1.1 (concentration 2.5 mg/mL in acetonitrile/water v/v 4/1) was sprayed onto the surfaces of (i) an ITO object slide and (ii) on a sliced sample of porcine brain with a MALDI HTX M5 Sprayer™ (by HTX Technologies, LLC, USA).
The operating parameters applied were as follows: Temperature of spraying nozzle: 50° C./flow rate: 0.06 mL/min/speed of spraying nozzle: 1000 mm/min/spraying distance: 40 mm.
The resulting crystals on (i) an ITO object slide and (FIG. 1 to 3) (ii) on a sliced sample of porcine brain (FIG. 4 to 5) where then analyzed by optical scanning (in 20-fold magnification) and by scanning electron microscopy (in 5000-fold and 10000-fold magnification), as shown in FIG. 1 to 5.

[6] = Solvent 6: Methanol/water (v/v 90/10) + 0.1% trifluoroacetic acid
[7] = Solvent 7: Methanol/water (v/v 90/10) + 50 mM (final conc.) NH4HCO3
[8] = Solvent 8: Methanol/water (v/v 85/15)
[9] = Solvent 9: Methanol/water (v/v 85/15) + 0.1% trifluoroacetic acid
[10] = Solvent 10: Methanol/water (v/v 85/15) + 50 mM (final conc.) NH4HCO3
[11] = organic solvent or mixture, Solvent 1: Acetonitrile
[12] = organic solvent or mixture, Solvent 2: Acetonitrile/water (v/v 90/10)
[13] = organic solvent or mixture, Solvent 3: Acetonitrile/water (v/v 90/10) + 0.1% trifluoroacetic acid
[14] = organic solvent or mixture, Solvent 4: Acetonitrile/water (v/v 85/15) + 0.1% trifluoroacetic acid
[15] = organic solvent or mixture, Solvent 5: Methanol/water (v/v 90/10)
[16] = Solvent 2: Acetonitrile/water (v/v 90/10)
[17] = Solvent 3: Acetonitrile/water (v/v 90/10) + 0.1% trifluoroacetic acid
[18] = Solvent 4: Acetonitrile/water (v/v 85/15) + 0.1% trifluoroacetic acid
[19] = Solvent 5: Methanol/water (v/v 90/10)
[20] = organic solvent or mixture, Solvent 6: Methanol/water (v/v 90/10) + 0.1% trifluoroacetic acid

Compound | presence on ITO slides / porcine brain tissue sections after incubation under vacuum [2] | solubility (completely dissolved at 2.5 mg/mL) [4, 6] | solubility (completely dissolved at 2.5 mg/mL) [4, 7] | solubility (completely dissolved at 2.5 mg/mL) [4, 8] | solubility (completely dissolved at 2.5 mg/mL) [4, 9] | solubility (completely dissolved at 2.5 mg/mL) [4, 10] | solubility [4, 11] [µg/mL] | solubility [4, 12] [µg/mL] | solubility [4, 13] [µg/mL] | solubility [4, 14] [µg/mL] | solubility in the solvents or solvent systems under review [4] | solubility (completely dissolved at 2.5 mg/mL) [4, 19] | other results
Sc1nc2ccccc2s1 [2-MBT, 2-mercaptobenzothiazole, reference compound] | – | – | – | – | – | – | – | – | – | – | – | – | dissolution at a concentration of 5 mg/mL ([1]; acetonitrile/water (1:1 v/v), 5 mg/mL): not completely dissolved
CC(=O)c1cc(O)ccc1O [2,5-DHAP, 2,5-dihydroxyacetophenone, reference compound] | completely evaporated | – | – | – | – | – | – | – | – | – | – | – | –
COc1cc(COC(=O)Oc2ccc(O)c(C(C)=O)c2)c([N+](=O)[O-])cc1OC [Ex. 1.9, 3-Acetyl-4-hydroxyphenyl (4,5-dimethoxy-2-nitrobenzyl) carbonate] | best results | – | – | – | – | – | – | – | – | – | – | – | concentration of saturated solution ([1]; acetonitrile/water 8:2 (v/v)+0.1% trifluoroacetic acid): < 2.5 mg/mL
CC(=O)c1c(O)cccc1O [2,6-DHAP, 2,6-dihydroxyacetophenone] | – | – | – | – | – | – | – | – | – | – | – | – | sensitivity to vacuum conditions [3]: extremely sensitive to vacuum conditions and volatile
COc1cc(CSc2nc3ccccc3s2)c([N+](=O)[O-])cc1OC [Ex. 1.5, 2-((4,5-Dimethoxy-2-nitrobenzyl)thio)benzo[d]thiazole] | – | ◯ | ◯ | ◯ | ◯ | ◯ | > 2500 | > 2500 | > 2500 | > 2500 | very good solubility | – | solubility [4, 15]: > 2500 µg/mL
COc1cc(COc2cccc3c2C(=O)c2c(O)cccc2C3)c([N+](=O)[O-])cc1OC [Ex. 1.6, 1-((4,5-Dimethoxy-2-nitrobenzyl)oxy)-8-hydroxyanthracen-9(10H)-one] | – | ◯ | ◯ | ◯ | ◯ | ◯ | – | – | – | – | – | ◯ | solubility (completely dissolved at 2.5 mg/mL) ([4]; Solvent 1: Acetonitrile): ◯; solubility (completely dissolved at 2.5 mg/mL) [4, 16]: ◯; solubility (completely dissolved at 2.5 mg/mL) [4, 17]: ◯; solubility (completely dissolved at 2.5 mg/mL) [4, 18]: ◯
COc1cc(COc2cccc(O)c2C(C)=O)c([N+](=O)[O-])cc1OC [Ex. 1.4, 1-(2-((4,5-Dimethoxy-2-nitrobenzyl)oxy)-6-hydroxyphenyl)ethan-1-one] | – | ◯ | ◯ | ◯ | ◯ | ◯ | > 2500 | > 2500 | > 2500 | > 2500 | very good solubility | ◯ | –
COc1cc(CNc2cccc3c(N)cccc23)c([N+](=O)[O-])cc1OC [Ex. 1.2, N^1-(4,5-dimethoxy-2-nitrobenzyl)naphthalene-1,5-diamine] | – | – | – | – | – | – | > 2500 | > 2500 | > 2500 | > 2500 | excellent solubility | – | solubility ([4]; methanol/water (v/v 85/15) + 50 mM NH4HCO3, organic solvent or mixture, Solvent 10: Methanol/water (v/v 85/15) + 50 mM (final conc.) NH4HCO3): > 2500 µg/mL; solubility ([4]; methanol/water (v/v 90/10) + 50 mM NH4HCO3, organic solvent or mixture, Solvent 7: Methanol/water (v/v 90/10) + 50 mM (final conc.) NH4HCO3): > 2500 µg/mL; solubility [4, 15]: > 2500 µg/mL; solubility [4, 20]: > 2500 µg/mL; solubility ([4]; organic solvent or mixture, Solvent 8: Methanol/water (v/v 85/15)): > 2500 µg/mL; solubility ([4]; organic solvent or mixture, Solvent 9: Methanol/water (v/v 85/15) + 0.1% trifluoroacetic acid): > 2500 µg/mL
COc1cc(COc2cc3ccccc3oc2=O)c([N+](=O)[O-])cc1OC [Ex. 1.3, 3-((4,5-Dimethoxy-2-nitrobenzyl)oxy)-2H-chromen-2-one] | – | ◯ | ◯ | ◯ | ◯ | ◯ | > 2500 | – | – | – | – | ◯ | solubility (completely dissolved at 2.5 mg/mL) [4, 16]: ◯; solubility (completely dissolved at 2.5 mg/mL) [4, 17]: ◯; solubility (completely dissolved at 2.5 mg/mL) [4, 18]: ◯
COc1cc(COc2ccc(O)c(C(C)=O)c2)c([N+](=O)[O-])cc1OC [Ex. 1.1, 1-(5-((4,5-Dimethoxy-2-nitrobenzyl)oxy)-2-hydroxyphenyl)ethan-1-one] | best results | – | ◯ | ◯ | ◯ | ◯ | > 2500 | > 2500 | > 2500 | > 2500 | very good solubility | ◯ | average size of the resulting crystals [5]: about 1 μm; solubility [4, 20]: > 2500 µg/mL

— patent US20240159706A1, “MALDI-MS METHOD, PHOTO-SENSITIVE MALDI MATRIX COMPOSITE AND PHOTO-CAGED MALDI MATRIX COMPOUND FOR USE IN SAID METHOD AND RESPECTIVE USES” (SIRIUS FINE CHEMICALS SICHEM GMBH, priority 2021, published 2024)
